Patent publication US7615361B2, “Toxicity screening methods” (Ceetox, Inc., priority 2006, dated 2009)
Values after ≈ are worked out from the molar mass of the structure shown. Read-outs that look alike come from different tables or passages of the source.

Legend:
rat cardiomyocytes = experiment: Membrane lipid peroxidation (8-isoprostane ELISA); format: cell-based; details: rat
Method: (§1) One test compound (Compound A) was received as dry powder and evaluated for potential cytotoxicity in a battery of in vitro assays. The compound was tested using both rat cardiomyocytes (CM) from rat neonates and a rat hepatoma (H4IIE) cell line. […] Camptothecin and rotenone were included as positive control compounds. The cell supernatant or the cells themselves were harvested for biochemical analysis. General cytotoxicity was evaluated by monitoring membrane integrity, mitochondrial function, cell proliferation, oxidative stress, and apoptosis. In addition, interaction with P-glycoprotein (PgP) on H4IIE cells and solubility of the test compound were also assessed. The means of each exposure group (n=3-7) were calculated for each assay performed. Intra assay variation well-to-well was typically less than 10% with plate to plate variation typically less than 20%.

MTT reduction = format: cell-based, rat; details: rat
Method: (§2) One test compound (Compound A) was received as dry powder and evaluated for potential cytotoxicity in a battery of in vitro assays. The compound was tested using both rat cardiomyocytes (CM) from rat neonates and a rat hepatoma (H4IIE) cell line. […] The cell supernatant or the cells themselves were harvested for biochemical analysis. General cytotoxicity was evaluated by monitoring membrane integrity, mitochondrial function, cell proliferation, oxidative stress, and apoptosis. In addition, interaction with P-glycoprotein (PgP) on H4IIE cells and solubility of the test compound were also assessed. The means of each exposure group (n=3-7) were calculated for each assay performed.
(§3) Experimental Protocol: The test compound was provided and stored at 4° C. until needed. Dosing solutions were prepared in complete culture medium. The rat hepatoma (H4IIE) cell line was used as the test system.
Tetrazolium Dye Reduction: 3-[4,5-dimethylthiazol-2-yl]

Intracellular ATP levels [1] = format: cell-based, rat; details: rat
Method: as §2
(§4) Intracellular ATP Levels: Cellular Adenosine triphosphate (ATP) was determined with an assay based on a reaction between ATP+D-luciferin+oxygen catalyzed by luciferase to yield Oxyluciferin+AMP+PPi+CO2+light. The emitted light is proportional to the amount of ATP present. […] In addition, a unique cell lysis reagent inhibits endogenous ATPases and therefore stabilizes cellular ATP by preventing its degradation to ADP. ATP is present in all-living cells and declines rapidly upon cell death. In addition, this assay in combination with the MTT assay provides an indicator of mitochondrial activity and energy status of the cell.
(§5) Plates were analyzed immediately or stored at −20° C. until needed. On the day of analysis, the plates were thawed and calibration curve prepared with ATP in the same liquid matrix as samples. ATP was quantified by adding ATP substrate solution and then reading luminescence on a Packard Fusion Luminescence or equivalent plate reader.
(§6) Intracellular ATP Levels: ATP levels in treated cells could be determined by using the regression coefficients obtained from the linear regression analysis of the calibration curve. Thus, values could be expressed as pmoles ATP/million cells. Background corrected luminescence was used to determine percent change relative to controls by dividing treated values by control values and multiplying by 100.

H4IIE cells = experiment: Membrane lipid peroxidation (8-isoprostane ELISA); format: cell-based, rat; details: rat, 24 h
Method: as §1, §3

P-glycoprotein (PgP) = P-glycoprotein (PgP) binding: MTT with and without cyclosporin A; format: cell-based, rat; details: for % Difference: 1-20% low, 20-50% moderate, 50-100% high PgP interaction
Method: Several antiviral drugs are substrates for P-glycoprotein transporter (PgP).
P-glycoprotein (PgP) transport proteins are expressed in the bile canalicular membrane of normal liver. However, in neoplastic cells it is not uncommon to have expression of this transporter system in the plasma membrane. […] The existence of these transporters was evaluated with the Calcein-AM assay and with known substrates of PgP.

[2] = Solubility in culture medium (nephelometry); format: physicochemical; details: dosing medium with 20% serum, 37° C., read-out: Highest Soluble Concentration Tested
Method: Solubility: The test compounds were prepared in DMSO and the appropriate amounts were then added to complete medium containing 10% bovine serum […] at 37° C. The samples were evaluated using a light scattering technique and a Nephaloskan instrument.
Solubility Assay: The test compounds were prepared in DMSO and the appropriate amounts were then added to complete medium containing 10% bovine serum at 37° C. The samples were evaluated using a light scattering technique and a Nephaloskan instrument.

[3] = Intracellular total glutathione (GSH); format: cell-based, rat; details: rat
Method: as §2, §3

Intracellular ATP levels [4] = format: cell-based, rat; details: rat; remark: listed apart in the source
Method: as §2, §3, §4, §5, §6

[5] = MemTox membrane leakage (AK / α-GST); format: cell-based, rat; details: rat
Method: as §2, §3
Membrane Leakage (α-Glutathione S-transferase and/or Adenylate Kinase): The presence of Adenylate Kinase (AK) or α-Glutathione S-transferase (α-GST), both enzyme leakage markers, was measured in the culture medium using an activity assay for Adenylate Kinase and/or an ELISA assay for α-GST. At the end of the exposure period, the medium covering the cells in each well was removed and placed into new 96-well plates with appropriate labeling. […] Luminescence (AK) values were measured with a Packard Fusion or equivalent plate reader, and absorbance (α-GST) values were measured with a Packard SpectraCount™ or equivalent reader at 450 nm and reference absorbance at 650 nm.
Membrane Leakage (α-Glutathione S-transferase and/or Adenylate Kinase): Leakage of Adenylate Kinase or α-GST from the cell into the culture medium was determined by collecting the culture medium at the end of the exposure period. Thus, the values measured represent total enzyme leakage lost over the exposure period. The control for 100% dead or maximum enzyme release was based on cells treated with 1 mM digitonin at the time of dosing. Percent dead cells relative to digitonin treated cells was determined and then subtracted from 100% to yield the percent live cells.

[6] = H4IIE 24 HR, MTT, 50 μM, with cyclosporin A
[7] = H4IIE 24 HR, MTT, 50 μM, without CSA
[8] = 37 °C, plasma or biological fluid, kinetic from dmso stock, CM 24 HR
[9] = 37 °C, plasma or biological fluid, kinetic from dmso stock, H4IIE 24 HR

| SMILES | Membrane Lipid Peroxidation (rat cardiomyocytes; 24 h) | CC50 at 24 h (MTT reduction; MTT TC50) [µM] | CC50 at 24 h (Intracellular ATP levels [1]) [µM] | Membrane Lipid Peroxidation (H4IIE cells) | % Control (Compound + CSA) (P-glycoprotein (PgP); [6]) [%] | % Control (Compound) (P-glycoprotein (PgP); [7]) [%] | % Difference (P-glycoprotein (PgP); H4IIE 24 HR) [%] | CC50 at 24 h ([3]; Total GSH TC50) [µM] | CC50 at 24 h (Intracellular ATP levels [4]; ATP TC50) [µM] | CC50 at 24 h ([5]; MemTox TC50) [µM] | solubility ([2]; CM 24 HR) [µM] | solubility ([2]; H4IIE 24 HR) [µM] | also measured |
| --- | --- | --- | --- | --- | --- | --- | --- | --- | --- | --- | --- | --- | --- |
| COc1cccc2c1C(=O)c1c(O)c3c(c(O)c1C2=O)C[C@@](O)(C(=O)CO)C[C@@H]3O[C@H]1C[C@H](N)[C@H](O)[C@H](C)O1 [ADRIAMYCIN, Adriamycin] | 0 | 13 | 6 | 0 | 0.0 | 8.0 | 76.9 | 28 | – | – | – | – | Membrane Lipid Peroxidation (rat cardiomyocytes; 1 h): 0; Membrane Lipid Peroxidation (rat cardiomyocytes; 3 h): 0; Membrane Lipid Peroxidation (rat cardiomyocytes; 6 h): 0; CC50 at 1 h (Intracellular ATP levels [1]): > 300 µM; CC50 at 3 h (Intracellular ATP levels [1]): 62 µM; CC50 at 6 h (Intracellular ATP levels [1]): 29 µM; % Control (Compound + CSA) (P-glycoprotein (PgP); H4IIE 24 HR, MTT, 50 μM, with cyclosporin A, listed as DOXORUBICIN): 13.7%; % Control (Compound) (P-glycoprotein (PgP); H4IIE 24 HR, MTT, 50 μM, without CSA, listed as DOXORUBICIN): 59.3%; solubility ([2]; 37 °C, plasma or biological fluid, kinetic from dmso stock, CM 1 HR): 100 µM (≈ 54.4 µg/mL); solubility ([2]; 37 °C, plasma or biological fluid, kinetic from dmso stock, CM 3 HR): 100 µM (≈ 54.4 µg/mL); solubility ([2]; 37 °C, plasma or biological fluid, kinetic from dmso stock, CM 6 HR): 100 µM (≈ 54.4 µg/mL); solubility [2, 8]: 100 µM (≈ 54.4 µg/mL); solubility [2, 9]: 100 µM (≈ 54.4 µg/mL); solubility ([2]; H4IIE 24 HR, listed as DOXORUBICIN): 300 µM (≈ 163 µg/mL) |
| Cc1cccc(C)c1OCC(=O)N[C@@H](Cc1ccccc1)[C@@H](O)C[C@H](Cc1ccccc1)NC(=O)[C@H](C(C)C)N1CCCNC1=O [LOPINAVIR, lopinavir] | 0 | 184 | 72 | 0 | 82.1 | 98.0 | 16.2 | 99 | 195 | > 300 | – | – | solubility [2, 8]: 50 µM (≈ 31.4 µg/mL); solubility [2, 9]: 50 µM (≈ 31.4 µg/mL) |
| COc1cccc2c1C(=O)c1c(O)c3c(c(O)c1C2=O)C[C@@](O)(C(C)=O)C[C@@H]3O[C@H]1C[C@H](N)[C@H](O)[C@H](C)O1 [DAUNORUBICIN, daunorubicin] | 0 | – | 9 | 0 | – | – | – | – | – | – | – | – | CC50 at 24 h (MTT reduction): 14 µM; CC50 at 24 h (Intracellular ATP levels [4]): 7 µM; % Control (Compound + CSA) (P-glycoprotein (PgP)): 5.5%; % Control (Compound) (P-glycoprotein (PgP)): 9.3%; CC50 at 24 h [5]: 41 µM; solubility ([2]; plasma or biological fluid, kinetic from dmso stock, CM 24 HR): 100 µM (≈ 52.8 µg/mL); CC50 at 24 h [3]: 16 µM |
| O=C1Nc2ccc(Cl)cc2[C@@](C#CC2CC2)(C(F)(F)F)O1 [EFAVIRENZ, efavirenz] | – | 161 | 75 | 0 | 70.1 | 89.0 | 21.3 | 170 | 162 | 181 | 300 (≈ 94.7 µg/mL) | 300 (≈ 94.7 µg/mL) | – |
| CC(=O)[C@]1(O)Cc2c(O)c3c(c(O)c2[C@@H](O[C@H]2C[C@H](N)[C@H](O)[C@H](C)O2)C1)C(=O)c1ccccc1C3=O [IDARUBICIN, idarubicin] | 0 | 3 | 2 | 0 | 0.0 | 0.8 | – | 4 | 2 | 30 | – | – | solubility ([2]; dosing (complete culture) medium with 20% serum, plasma or biological fluid, kinetic from dmso stock, CM 24 HR): 20 µM (≈ 9.95 µg/mL) |
| CC(C)Nc1cccnc1N1CCN(C(=O)c2cc3cc(NS(C)(=O)=O)ccc3[nH]2)CC1 [DELAVIRDINE, delavirdine] | 0 | 218 | 166 | – | 62.3 | 89.8 | 30.7 | 96 | 257 | > 300 | 300 (≈ 137 µg/mL) | 300 (≈ 137 µg/mL) | – |
| Nc1nc(NC2CC2)c2ncn([C@H]3C=C[C@@H](CO)C3)c2n1 [ABACAVIR, abacavir] | – | > 300 | 165 | 0 | 104.8 | 97.6 | – | 213 | 154 | > 300 | 300 (≈ 85.9 µg/mL) | 300 (≈ 85.9 µg/mL) | – |
